Data taken from ChEMBL document CHEMBL3804812, “Design, Syntheses, and Anti-TB Activity of 1,3-Benzothiazinone Azide and Click Chemistry Products Inspired by BTZ043” (ACS Med Chem Lett, 2016).
In brackets after ≈: the same amount, converted by molar mass. Activity calls are given as the source filed them. The calls are words filed in the database; no cut-off is given here.

Columns and labels:
[1] = system: Mycobacterium tuberculosis; assay: Antibacterial activity against Mycobacterium tuberculosis H37Rv in 7H12 medium by microplate alamar blue assay; assay type: functional; conditions: for MIC: Mycobacterium tuberculosis, H37Rv
[2] = system: Mycobacterium tuberculosis; assay: Antibacterial activity against Mycobacterium tuberculosis H37Rv in GAS medium by microplate alamar blue assay; assay type: functional; conditions: for MIC: Mycobacterium tuberculosis, H37Rv
[3] = target: T1, Decaprenylphosphoryl-beta-D-ribose oxidase (Mycobacterium smegmatis (strain ATCC 700084 / mc(2)155)) (UniProt A0R607); assay: Inhibition of DprE1 in P-14C-RPP-labelled Mycobacterium smegmatis MC2 155 cell membranes assessed as supression of conversion of decaprenylphosphoryl ribose to decaprenylphosphoryl arabinose after 1 hr by TLC analysis; assay type: cell-based; conditions: Mycolicibacterium smegmatis MC2 155
T1 sequence (whole entry): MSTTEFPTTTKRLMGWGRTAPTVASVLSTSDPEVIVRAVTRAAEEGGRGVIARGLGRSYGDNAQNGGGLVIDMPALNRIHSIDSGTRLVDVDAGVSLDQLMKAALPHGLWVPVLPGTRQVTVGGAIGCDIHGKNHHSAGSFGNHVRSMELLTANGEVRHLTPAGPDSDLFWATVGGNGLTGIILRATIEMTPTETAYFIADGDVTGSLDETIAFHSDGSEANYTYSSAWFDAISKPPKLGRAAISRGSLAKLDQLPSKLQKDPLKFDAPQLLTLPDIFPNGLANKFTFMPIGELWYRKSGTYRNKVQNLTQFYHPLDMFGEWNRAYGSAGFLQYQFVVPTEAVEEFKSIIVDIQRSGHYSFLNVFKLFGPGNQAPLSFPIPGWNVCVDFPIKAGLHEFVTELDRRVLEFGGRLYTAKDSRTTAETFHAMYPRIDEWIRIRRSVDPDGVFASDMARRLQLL

[4] = system: Mycobacterium tuberculosis; assay: Antibacterial activity against Mycobacterium tuberculosis H37Rv in 7H12 medium at >1uM by microplate alamar blue assay; assay type: functional
[5] = system: Mycobacterium tuberculosis; assay: Antibacterial activity against Mycobacterium tuberculosis H37Rv in GAS medium at >1uM by microplate alamar blue assay; assay type: functional
[6] = target: T2, Decaprenylphosphoryl-beta-D-ribose oxidase (Mycobacterium tuberculosis (strain ATCC 25618 / H37Rv)) (UniProt P9WJF1); assay: Reversible inhibition of recombinant Mycobacterium tuberculosis H37Rv DprE1 using FPR as substrate assessed as residual enzymatic activity preincubated for 10 mins followed by substrate addition by fluorescence assay
T2 sequence (whole entry): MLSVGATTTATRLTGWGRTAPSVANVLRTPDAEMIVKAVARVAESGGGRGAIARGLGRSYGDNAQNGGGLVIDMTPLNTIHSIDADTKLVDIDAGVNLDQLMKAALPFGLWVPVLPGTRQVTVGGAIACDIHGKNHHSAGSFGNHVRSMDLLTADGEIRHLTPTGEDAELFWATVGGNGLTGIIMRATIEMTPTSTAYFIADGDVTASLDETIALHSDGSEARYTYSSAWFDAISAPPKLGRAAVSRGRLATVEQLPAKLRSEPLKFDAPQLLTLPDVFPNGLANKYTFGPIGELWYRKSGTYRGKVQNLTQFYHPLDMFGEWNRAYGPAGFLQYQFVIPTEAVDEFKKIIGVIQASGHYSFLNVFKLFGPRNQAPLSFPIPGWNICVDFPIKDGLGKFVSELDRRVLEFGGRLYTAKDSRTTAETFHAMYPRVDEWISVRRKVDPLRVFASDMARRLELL

[7] = target: T3, Decaprenylphosphoryl-beta-D-ribose oxidase (Mycobacterium tuberculosis (strain ATCC 25618 / H37Rv), UniProt P9WJF1); assay: Inhibition of recombinant Mycobacterium tuberculosis H37Rv DprE1 using FPR as substrate assessed as residual enzymatic activity preincubated for 10 mins followed by substrate addition by fluorescence assay
T3 sequence (P9WJF1 whole entry): T2 sequence (whole entry)

[8] = target: T2, Decaprenylphosphoryl-beta-D-ribose oxidase (Mycobacterium tuberculosis (strain ATCC 25618 / H37Rv)); assay: Irreversible inhibition of recombinant Mycobacterium tuberculosis H37Rv DprE1 using FPR as substrate assessed as residual enzymatic activity preincubated for 10 mins followed by substrate addition by fluorescence assay

Row | SMILES | MIC [1] [µM] | MIC [2] [µM] | inhibition [3] | growth inhibition (GI) [4] [%] | growth inhibition (GI) [5] [%] | inhibition [6] | IC50 [7] [µM] | inhibition (INH) [1] [%] | inhibition (INH) [2] [%] | inhibition [8]
1 | C[C@H]1COC2(CCN(c3nc(=O)c4cc(C(F)(F)F)ccc4s3)CC2)O1 | > 100 | 8.68 (≈ 3.35 µg/mL) | inactive | – | – | – | – | – | – | –
2 | C[C@H]1COC2(CCN(c3nc(=O)c4cc(C(F)(F)F)cc(-n5cc(Cc6ccccc6)nn5)c4s3)CC2)O1 | 9.9 (≈ 5.38 µg/mL) | 9.27 (≈ 5.04 µg/mL) | – | 0 | 0 | – | – | – | – | –
3 | C[C@H]1COC2(CCN(c3nc(=O)c4cc(C(F)(F)F)cc(N=[N+]=[N-])c4s3)CC2)O1 | 0.47 (≈ 0.201 µg/mL) | 0.46 (≈ 0.197 µg/mL) | inactive | – | – | Active | 9.6 | – | – | –
4 | CO[C@H]1/C=C/O[C@@]2(C)Oc3c(C)c(O)c4c(O)c(c(/C=N/N5CCN(C)CC5)c(O)c4c3C2=O)NC(=O)/C(C)=C\C=C\[C@H](C)[C@H](O)[C@@H](C)[C@@H](O)[C@@H](C)[C@H](OC(C)=O)[C@@H]1C [RIFAMPIN] | 0.05 (≈ 0.0411 µg/mL) | 0.04 (≈ 0.0329 µg/mL) | – | – | – | – | – | – | – | –
5 | CCOC(=O)c1cn(-c2cc(C(F)(F)F)cc3c(=O)nc(N4CCC5(CC4)OC[C@H](C)O5)sc23)nn1 | 0.93 (≈ 0.489 µg/mL) | > 1 | – | – | 34 | – | – | – | – | –
6 | C[C@H]1COC2(CCN(c3nc(=O)c4cc(C(F)(F)F)cc(N)c4s3)CC2)O1 | > 10 | > 10 | – | 87 | 0 | – | – | 12 | 10 | –
7 | C[C@H]1COC2(CCN(c3nc(=O)c4cc(C(F)(F)F)cc(-n5cc(CN(C)C)nn5)c4s3)CC2)O1 | 0.87 (≈ 0.444 µg/mL) | 0.95 (≈ 0.485 µg/mL) | – | – | – | – | – | – | – | –
8 | C[C@H]1COC2(CCN(c3nc(=O)c4cc(C(F)(F)F)cc([N+](=O)[O-])c4s3)CC2)O1 [BTZ-043] | < 0.004 | < 0.004 | Active | – | – | – | – | – | – | Active
